Read-outs that look alike come from different tables or passages of the source.
Assays:
[1] = 4b, 50 mg/kg dosed orally, ref (4); cited from earlier work
HDAC1 [2] = molecular target: T1, HDAC1 (Homo sapiens (Human), UniProt Q13547); test: HDAC1 in vitro inhibition, dose response; type: biochemical; settings: Table 2; read-out: HDAC 1 IC50
HDAC3 = HDAC3 (Homo sapiens (Human), UniProt O15379); test: HDAC3 in vitro inhibition, dose response; type: biochemical; settings: Table 2; read-out: HDAC 3 IC50
Chain of HDAC3 (O15379 whole entry): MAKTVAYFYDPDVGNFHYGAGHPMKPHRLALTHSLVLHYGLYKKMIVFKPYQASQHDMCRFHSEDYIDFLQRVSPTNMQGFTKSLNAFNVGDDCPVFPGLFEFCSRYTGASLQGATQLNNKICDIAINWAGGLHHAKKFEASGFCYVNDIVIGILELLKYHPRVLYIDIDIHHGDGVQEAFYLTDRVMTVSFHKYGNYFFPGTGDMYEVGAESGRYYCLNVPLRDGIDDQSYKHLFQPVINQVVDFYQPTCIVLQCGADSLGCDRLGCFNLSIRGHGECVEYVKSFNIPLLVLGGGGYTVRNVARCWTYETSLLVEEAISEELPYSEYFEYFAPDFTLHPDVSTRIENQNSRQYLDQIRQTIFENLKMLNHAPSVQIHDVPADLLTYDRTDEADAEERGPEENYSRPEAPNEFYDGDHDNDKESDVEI
Chain of HDAC3 (Q9Y618 395-489 partner): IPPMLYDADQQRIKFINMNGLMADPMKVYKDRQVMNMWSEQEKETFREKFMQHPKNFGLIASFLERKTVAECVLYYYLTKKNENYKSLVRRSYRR

HDAC2 [3] = molecular target: T2, HDAC2 (Homo sapiens (Human), UniProt Q92769); test: HDAC2 in vitro inhibition, dose response; type: biochemical; settings: Table 2; read-out: HDAC 2 IC50
T2 sequence (Q92769 whole entry): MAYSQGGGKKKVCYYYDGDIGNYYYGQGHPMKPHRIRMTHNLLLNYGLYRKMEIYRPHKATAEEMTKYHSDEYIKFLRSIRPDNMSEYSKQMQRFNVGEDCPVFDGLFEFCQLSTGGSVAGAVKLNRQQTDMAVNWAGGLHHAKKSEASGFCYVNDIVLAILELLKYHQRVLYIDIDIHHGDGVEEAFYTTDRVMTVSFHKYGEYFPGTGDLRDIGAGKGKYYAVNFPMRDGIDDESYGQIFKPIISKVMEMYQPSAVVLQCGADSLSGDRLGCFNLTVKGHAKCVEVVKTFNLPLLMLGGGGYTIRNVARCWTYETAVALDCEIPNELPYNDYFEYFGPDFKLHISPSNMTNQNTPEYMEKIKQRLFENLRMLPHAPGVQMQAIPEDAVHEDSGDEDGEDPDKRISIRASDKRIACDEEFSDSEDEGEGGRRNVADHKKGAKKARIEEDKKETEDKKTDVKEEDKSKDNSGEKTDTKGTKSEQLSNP

HepG2 cells [4] = test system: HepG2 cells
HDAC6 = HDAC6 (Homo sapiens (Human), UniProt Q9UBN7); test: HDAC6 in vitro inhibition, dose response; type: biochemical; settings: Table 2; read-out: HDAC 6 IC50
Chain of HDAC6 (Q9UBN7 whole entry): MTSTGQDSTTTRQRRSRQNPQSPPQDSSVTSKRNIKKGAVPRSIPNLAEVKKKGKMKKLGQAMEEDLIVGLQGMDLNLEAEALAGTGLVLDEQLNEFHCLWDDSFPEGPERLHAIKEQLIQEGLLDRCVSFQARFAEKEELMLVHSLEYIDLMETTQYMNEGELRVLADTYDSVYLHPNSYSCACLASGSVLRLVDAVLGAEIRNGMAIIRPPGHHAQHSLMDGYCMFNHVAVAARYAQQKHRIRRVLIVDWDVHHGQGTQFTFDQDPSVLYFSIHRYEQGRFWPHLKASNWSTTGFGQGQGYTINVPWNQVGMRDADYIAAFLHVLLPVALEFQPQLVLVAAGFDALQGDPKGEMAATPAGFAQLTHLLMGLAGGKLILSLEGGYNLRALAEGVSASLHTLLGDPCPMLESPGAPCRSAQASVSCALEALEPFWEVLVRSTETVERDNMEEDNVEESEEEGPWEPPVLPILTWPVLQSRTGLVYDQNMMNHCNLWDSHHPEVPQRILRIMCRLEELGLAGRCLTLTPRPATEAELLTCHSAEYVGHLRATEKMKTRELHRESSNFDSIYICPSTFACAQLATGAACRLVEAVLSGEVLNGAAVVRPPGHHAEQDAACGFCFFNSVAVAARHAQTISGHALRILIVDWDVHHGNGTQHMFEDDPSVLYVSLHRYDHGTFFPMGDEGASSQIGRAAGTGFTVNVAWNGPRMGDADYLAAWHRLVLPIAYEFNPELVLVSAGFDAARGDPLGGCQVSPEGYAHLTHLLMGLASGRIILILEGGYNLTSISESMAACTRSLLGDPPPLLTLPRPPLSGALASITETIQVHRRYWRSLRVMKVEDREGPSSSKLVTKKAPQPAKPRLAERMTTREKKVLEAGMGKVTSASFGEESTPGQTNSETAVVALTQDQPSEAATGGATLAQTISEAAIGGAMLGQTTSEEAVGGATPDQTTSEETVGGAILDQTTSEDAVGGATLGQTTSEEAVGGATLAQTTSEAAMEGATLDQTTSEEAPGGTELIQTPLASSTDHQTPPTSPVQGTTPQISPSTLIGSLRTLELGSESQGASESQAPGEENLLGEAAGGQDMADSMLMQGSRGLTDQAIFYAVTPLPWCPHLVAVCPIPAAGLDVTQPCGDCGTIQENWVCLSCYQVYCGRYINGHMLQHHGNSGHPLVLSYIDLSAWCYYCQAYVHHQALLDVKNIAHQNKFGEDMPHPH

HCT116 cells = test: Histone acetylation by Western blotting; type: cell-based
HepG2 cells [5] = test: cells; settings: Homo sapiens
HDAC8 = HDAC8 (Homo sapiens (Human), UniProt Q9BY41); test: HDAC8 in vitro inhibition, dose response; type: biochemical; settings: Table 2; read-out: HDAC 8 IC50
Chain of HDAC8 (Q9BY41 whole entry): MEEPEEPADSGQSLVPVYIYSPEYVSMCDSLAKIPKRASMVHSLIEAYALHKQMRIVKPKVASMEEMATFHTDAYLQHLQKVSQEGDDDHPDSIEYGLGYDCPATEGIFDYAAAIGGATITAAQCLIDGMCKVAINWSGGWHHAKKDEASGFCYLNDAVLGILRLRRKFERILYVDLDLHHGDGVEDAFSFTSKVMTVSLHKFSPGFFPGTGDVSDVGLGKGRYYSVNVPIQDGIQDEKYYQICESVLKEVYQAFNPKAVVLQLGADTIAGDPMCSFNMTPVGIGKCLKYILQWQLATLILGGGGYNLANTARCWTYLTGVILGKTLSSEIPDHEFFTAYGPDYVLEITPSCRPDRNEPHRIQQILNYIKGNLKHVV

HDAC1 [6] = molecular target: T1, HDAC1; test: HDAC-1 inhibition potency, luminescence readout; type: biochemical; settings: Table 6, luminescence readout
Description: (§1) Compounds were examined for their HDAC inhibitory activity and their effect on cancer cell viability (MDA-MB-231 cells).

MDA-MB-231 cells = test: Cancer cell viability (CellTiter-Glo); type: cell-based; settings: Homo sapiens, MDA-MB-231, read-out: Cancer cell (MDA-MB-231) killing IC50
HDAC2 [7] = molecular target: T2, HDAC2; test: HDAC-2 inhibition potency, luminescence readout; type: biochemical; settings: Table 6, luminescence readout
Description: as §1

HCT116 and A549 cells = test: Acetylation of non-histone proteins by Western blotting; type: cell-based; settings: HCT116 and A549, 1 h; TSA 0.2 μM, UF010 2 μM

T1 sequence (Q13547 whole entry): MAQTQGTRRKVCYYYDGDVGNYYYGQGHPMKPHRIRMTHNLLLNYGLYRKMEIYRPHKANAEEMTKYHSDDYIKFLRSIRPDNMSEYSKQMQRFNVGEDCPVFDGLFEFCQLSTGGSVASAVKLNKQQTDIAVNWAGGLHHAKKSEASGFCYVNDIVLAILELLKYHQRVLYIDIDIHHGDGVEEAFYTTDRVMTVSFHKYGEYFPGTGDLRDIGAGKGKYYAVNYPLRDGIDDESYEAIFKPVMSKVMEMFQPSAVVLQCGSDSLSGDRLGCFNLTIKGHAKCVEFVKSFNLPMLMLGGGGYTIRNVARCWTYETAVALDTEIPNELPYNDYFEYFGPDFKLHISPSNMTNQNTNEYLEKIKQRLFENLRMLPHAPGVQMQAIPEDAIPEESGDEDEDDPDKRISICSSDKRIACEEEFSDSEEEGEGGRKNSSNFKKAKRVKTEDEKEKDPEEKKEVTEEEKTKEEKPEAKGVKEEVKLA

IC50 (HDAC1 [2])	IC50 (HDAC3)	IC50 (HDAC2 [3])	Molecule	other results
–	–	–	Nc1ccccc1NC(=O)CCCCCC(=O)Nc1ccccc1 [Compound 4b]	AUC [1]: 1.08 µM·h; Cmax [1]: 1130 nM; T1/2 [1]: 2.76 h; Tmax [1]: 0.25 h
13.2 µM	1.78 µM	15.1 µM	CCCCNNC(=O)c1ccc(F)cc1 [RLS2-123, N′-butyl-4-fluorobenzohydrazide]	–
8.86 µM	1.35 µM	9.09 µM	CCCCNNC(=O)c1ccc(OC(F)(F)F)cc1 [RLS2-124, N′-butyl-4-(trifluoromethoxy)benzohydrazide]	–
> 50 µM	> 50 µM	> 50 µM	CCCCNNC(=O)c1ccccc1 [RLS2-125, N′-butylbenzohydrazide]	growth inhibition for HepG2 (HepG2 cells [4]; HepG2, 96 h): little to no growth inhibition
1.91 µM	0.43 µM	2.52 µM	CCCCNNC(=O)c1ccc(OC)cc1 [RLS2-126, N′-butyl-4-methoxybenzohydrazide]	–
21.3 µM	2.47 µM	21.2 µM	CCCCNNC(=O)c1ccc([N+](=O)[O-])cc1 [RLS2-128, N′-butyl-4-nitrobenzohydrazide]	–
3.75 µM	0.95 µM	5.82 µM	CCCCNNC(=O)c1ccc(Cl)cc1 [RLS2-133, N′-butyl-4-chlorobenzohydrazide]	–
1.7 µM	0.22 µM	3.88 µM	CCCNNC(=O)c1ccc(Br)cc1 [RLS2-137, 4-bromo-N′-propylbenzohydrazide]	–
> 50 µM	> 50 µM	> 50 µM	CC(C)NNC(=O)c1ccccc1 [RLS2-185, N′-isopropylbenzohydrazide]	–
> 50 µM	> 50 µM	> 50 µM	Cc1ccc(C(=O)NNC(C)(C)C)cc1 [RLS2-187, N′-tert-butyl-4-methylbenzohydrazide]	–
> 50 µM	> 50 µM	> 50 µM	CCCCNNC(=O)c1cc2ccccc2cc1O [RLS2-210, N′-butyl-3-hydroxy-2-naphthohydrazide]	–
0.19 µM	0.07 µM	1.04 µM	CCCCNNC(=O)c1ccc(C(C)(C)C)cc1 [RLS2-211, 4-tert-butyl-N′-butylbenzohydrazide]	IC50 (HDAC6): 0.045 µM; IC50 (HDAC8): 0.045 µM
7.4 µM	1.08 µM	7.65 µM	O=C(NNCCC1CCCC1)c1ccc(Br)cc1 [RLS2-219, 4-bromo-N′-(2-cyclopentylethyl)benzohydrazide]	–
1.76 µM	1.67 µM	3.25 µM	CN(C)c1ccc(C(=O)NNCC2CCCC2)cc1 [RLS2-225, N′-(cyclopentylmethyl)-4-(dimethylamino)benzohydrazide]	–
4.3 µM	–	5.92 µM	CCCCNNC(=O)c1ccc2ccccc2c1 [RLS2-238, N′-butyl-2-naphthohydrazide]	–
> 50 µM	> 50 µM	> 50 µM	CCNNC(=O)c1ccc2ccccc2c1 [RLS2-240, N′-ethyl-2-naphthohydrazide]	–
> 50 µM	> 50 µM	> 50 µM	O=C(NNCCCC1CCCC1)c1ccc2ccccc2c1 [RLS2-249, N′-(3-cyclopentylpropyl)-2-naphthohydrazide]	–
> 50 µM	> 50 µM	> 50 µM	O=C(NNCC1CCCC1)c1ccc2ccccc2c1 [RLS2-254, N′-(cyclopentylmethyl)-2-naphthohydrazide]	–
3.5 µM	1.65 µM	6.68 µM	CCCNNC(=O)c1ccc2ccccc2c1 [RLS2-255, N′-propyl-2-naphthohydrazide]	–

IC50 (HDAC1 [2])	IC50 (HDAC3)	IC50 (HDAC2 [3])	Molecule	other results
8.81 µM	6.98 µM	28.4 µM	O=C(NNCC1CCCC1)c1ccc(Br)cc1 [RLS2-256, 4-bromo-N′-(cyclopentylmethyl)benzohydrazide]	–
> 50 µM	> 50 µM	> 50 µM	O=C(NNCCCC1CCCC1)c1ccc(Br)cc1 [RLS2-257, 4-bromo-N′-(3-cyclopentylpropyl)benzohydrazide]	–
2.25 µM	8.08 µM	2.82 µM	CCCCCCNNC(=O)c1ccc(C(C)(C)C)cc1 [RLS2-283, 4-tert-butyl-N′-hexylbenzohydrazide]	–
10.3 µM	20 µM	16.1 µM	CCCCCCNNC(=O)c1ccc(Br)cc1 [RLS2-284, 4-bromo-N′-hexylbenzohydrazide]	–
14.5 µM	4.35 µM	56.7 µM	CCCCNNC(=O)c1cccnc1 [RLS2-289, N′-butylnicotinohydrazide]	–
4.28 µM	1.4 µM	13.7 µM	CCCCNNC(=O)c1ccncc1 [RLS2-290, N′-butylisonicotinohydrazide]	–
> 50 µM	> 50 µM	> 50 µM	CCCCNNC(=O)c1cccc(OCC)c1 [RLS2-303, N′-butyl-3-ethoxybenzohydrazide]	–
72.3 µM	42.4 µM	79.6 µM	CCCCNNC(=O)c1ccccc1F [RLS2-305, N′-butyl-2-fluorobenzohydrazide]	–
0.32 µM	0.15 µM	0.527 µM	CCCCNNC(=O)c1ccc(CN=[N+]=[N-])cc1 [RLS2-312, 4-(azidomethyl)-N′-butylbenzohydrazide]	IC50 (HDAC6): 0.009 µM
> 50 µM	> 50 µM	> 50 µM	CCCCNNC(=O)c1ccccc1-c1ccccc1 [RLS3-4, N′-butylbiphenyl-2-carbohydrazide]	–
31.4 µM	> 50 µM	47 µM	CCCCNNC(=O)c1cccc(I)c1 [RLS3-5, N′-butyl-3-iodobenzohydrazide]	–
35.3 µM	1.88 µM	93.3 µM	CCCCNNC(=O)c1cccc(C(F)(F)F)c1 [RLS3-6, N′-butyl-3-(trifluoromethyl)benzohydrazide]	–
11.8 µM	0.8 µM	7.4 µM	CCCCNNC(=O)c1ccc(OCC)c(OCC)c1 [RLS3-14, N′-butyl-3,4-diethoxybenzohydrazide]	–
–	–	–	CCCCNNC(=O)c1ccc(-c2ccccc2)cc1 [SR-3558]	IC50 (HDAC1 [6]): 0.09 µM; IC50 (MDA-MB-231 cells): 12.3 µM; IC50 (HDAC2 [7]): 0.8 µM
1.24 µM	2.29 µM	7.27 µM	CCCCNNC(=O)c1ccc(-c2cncnc2)cc1 [SR-4369, N′-butyl-4-(pyrimidin-5-yl)benzohydrazide]	–
0.76 µM	0.38 µM	1.2 µM	CCCCNNC(=O)c1ccc(-c2cc(C)cc(F)c2)cc1 [SR-4372, N′-butyl-3′-fluoro-5′-methylbiphenyl-4-carbohydrazide]	IC50 (HDAC6): 3.7 µM; IC50 (HDAC8): 3.6 µM
1.3 µM	0.42 µM	–	CCCCNNC(=O)c1ccc(-c2cc(C(=O)OCC)ccc2F)cc1 [SR-4373, ethyl 4′-(2-butylhydrazinecarbonyl)-6-fluorobiphenyl-3-carboxylate]	IC50 (HDAC6): 6.5 µM
–	–	–	CC(/C=C/C(=O)NO)=C\[C@@H](C)C(=O)c1ccc(N(C)C)cc1 [TSA, Trichostatin A, reference compound]	α-tubulin acetylation (HCT116 and A549 cells): dramatically increased; accumulation of acetylated histones (HCT116 cells; HCT116, 1 h exposure, TSA 0.2 μM, others 2 μM (FIG. 1A)): strongly induced acetylation at some sites but weakly at other sites

Molecule	IC50 (HDAC1 [2])	IC50 (HDAC3)	IC50 (HDAC2 [3])	other results
CCCCNNC(=O)c1ccc(N(C)C)cc1 [RLS2-131, N′-butyl-4-(dimethylamino)benzohydrazide]	0.23 µM	0.12 µM	0.88 µM	IC50 (HDAC6): > 50 µM; potency against HepG2 relative to UF010 (HepG2 cells [4]; HepG2): 3 fold; inhibition of cellular HDACs (H4K5ac, H3K18ac) (HCT116 cells; HCT116, 0.5 μM, 24 h (FIG. 1B)): potent inhibition of cellular HDACs; IC50 (HepG2 cells [5]; HepG2, read-out: IC50 Control): 1.5 µM; IC50 (HepG2 cells [5]; HepG2, read-out: IC50 HDAC1 shRNA): 1.8 µM; IC50 (HepG2 cells [5]; HepG2, read-out: IC50 HDAC2 shRNA): 2 µM; IC50 (HepG2 cells [5]; HepG2, read-out: IC50 HDAC3 shRNA): 0.2 µM; IC50 (HDAC8): 13.1 µM
O=C(NNCCc1ccccc1)c1ccc(Br)cc1 [RLS2-138, 4-bromo-N′-phenethylbenzohydrazide]	> 50 µM	> 50 µM	> 50 µM	–
NNC(=O)c1ccc2ccccc2c1 [RLS2-243, 2-naphthohydrazide]	> 50 µM	> 50 µM	> 50 µM	–
CCCCNNC(=O)c1ccc(OC)c(OC)c1 [RLS3-11, N′-butyl-3,4-dimethoxybenzohydrazide]	22.2 µM	4 µM	20.4 µM	–
CCCCNNC(=O)c1ccc(OC)c(OC)c1 [RLS3-20]	> 50 µM	13.8 µM	30.1 µM	–
CCCCNNC(=O)c1ccc(-c2ccccc2)cc1 [RLS3-43, N′-butylbiphenyl-4-carbohydrazide]	0.09 µM	–	0.8 µM	IC50 (HDAC8): 2.43 µM
N′-butyl-3-fluorobenzohydrazide [RLS2-306]	8.63 µM	4.77 µM	10.9 µM	–
